Data set [1] addresses T1, human VPAC2 (Homo sapiens, UniProt P41587).
T1 construct: expressed in transfected cells
T1 sequence (P41587 24-438): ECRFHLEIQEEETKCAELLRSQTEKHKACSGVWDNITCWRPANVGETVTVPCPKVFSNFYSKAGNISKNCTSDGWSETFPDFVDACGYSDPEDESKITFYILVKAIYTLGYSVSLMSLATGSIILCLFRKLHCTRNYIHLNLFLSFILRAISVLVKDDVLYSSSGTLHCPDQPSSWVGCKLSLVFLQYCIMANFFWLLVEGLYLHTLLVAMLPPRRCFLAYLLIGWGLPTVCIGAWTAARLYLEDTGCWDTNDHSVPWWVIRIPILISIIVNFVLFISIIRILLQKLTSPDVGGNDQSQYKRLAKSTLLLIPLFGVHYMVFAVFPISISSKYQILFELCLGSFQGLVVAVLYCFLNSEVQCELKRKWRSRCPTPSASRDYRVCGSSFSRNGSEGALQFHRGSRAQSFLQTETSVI
Put plainly: Filter binding assay, 125I-labeled VIP tracer, VPAC2 membranes. The conditions noted are these: read-out: Human VPAC2 Receptor Binding (IC50; nM).

The target in another data set is T2, human PAC1 (Homo sapiens, UniProt P41586).
T2 construct: expressed in transfected cells
T2 sequence (P41586 21-468): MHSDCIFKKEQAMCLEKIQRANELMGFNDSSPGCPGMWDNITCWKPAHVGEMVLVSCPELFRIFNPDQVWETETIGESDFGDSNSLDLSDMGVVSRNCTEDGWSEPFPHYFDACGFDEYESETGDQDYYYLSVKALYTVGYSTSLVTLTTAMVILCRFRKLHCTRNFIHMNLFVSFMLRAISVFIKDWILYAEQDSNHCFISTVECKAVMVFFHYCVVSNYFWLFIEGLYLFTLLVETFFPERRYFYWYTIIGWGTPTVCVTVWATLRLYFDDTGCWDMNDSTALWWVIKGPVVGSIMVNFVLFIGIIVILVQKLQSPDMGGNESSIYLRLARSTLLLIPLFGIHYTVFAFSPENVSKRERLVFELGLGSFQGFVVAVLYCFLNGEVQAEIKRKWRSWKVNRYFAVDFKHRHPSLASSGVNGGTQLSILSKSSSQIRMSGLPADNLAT
The experiment in a line: Filter binding assay, 125I-labeled PACAP-27 tracer, PAC1 membranes. The conditions noted are these: read-out: Human PAC1 Receptor Binding (IC50; nM).

The target in the next data set is T3, rat VPAC1 receptor (Rattus norvegicus, UniProt P30083).
T3 construct: expressed in transfected cells; host or cells: CHO-PO (transient, Lipofectamine)
T3 sequence (P30083 31-459): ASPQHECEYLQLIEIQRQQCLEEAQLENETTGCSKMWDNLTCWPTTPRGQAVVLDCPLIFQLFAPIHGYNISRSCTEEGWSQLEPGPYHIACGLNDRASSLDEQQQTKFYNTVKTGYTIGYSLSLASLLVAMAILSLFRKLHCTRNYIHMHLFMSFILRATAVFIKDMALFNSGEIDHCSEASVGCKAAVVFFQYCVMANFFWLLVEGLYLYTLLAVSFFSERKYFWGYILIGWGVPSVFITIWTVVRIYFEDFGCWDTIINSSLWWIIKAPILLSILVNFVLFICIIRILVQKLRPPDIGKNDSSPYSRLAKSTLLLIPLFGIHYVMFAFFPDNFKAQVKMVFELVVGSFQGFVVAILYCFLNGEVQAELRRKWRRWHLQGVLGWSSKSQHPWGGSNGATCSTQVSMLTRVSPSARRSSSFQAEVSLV
Put plainly: DiscoveRx cAMP assay, in vitro potency at rat VPAC1 receptor. Type of data set: cell-based. To be noted: CHO-PO cells transiently transfected with rat VPAC1; cAMP generation; mean of two independent runs. The protocol: DiscoveRx: CHO-PO cells are transiently transfected with rat VPAC1 or VPAC2 receptor DNA using commercially available transfection reagents (Lipofectamine from Invitrogen). The cells are seeded at a density of 10,000/well in a 96-well plate and are allowed to grow for 3 days in […] culture medium. At day 3, the assay is performed.
On the day of the experiment, the medium is removed. Also, the cells are washed twice. The cells are incubated in assay buffer plus IBMX for 15 minutes at room temperature. Afterwards, the stimuli are added and are dissolved in assay buffer. The stimuli are present for 30 minutes. Then, the assay buffer is gently removed. The cell lysis reagent of the DiscoveRx cAMP kit is added. Thereafter, the standard protocol for developing the cAMP signal as described by the manufacturer is used (DiscoveRx Inc., USA). EC50 values for cAMP generation are calculated from the raw signal or are based on absolute cAMP levels as determined by a standard curve performed on each plate.
Results for each agonist are the mean of two independent runs. Rat VPAC1 and VPAC2 results are only generated using the DiscoveRx assay.

The nature of data set [2]: Rat serum stability (activity remaining, CHO-VPAC2 DiscoveRx read-out). Type of data set: in vitro ADME. A digest of the protocol: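 Peptides preincubated overnight in rat serum at 37 °C without aprotinin versus 4 °C with aprotinin, then tested as 11-point 5× dilutions in duplicate on CHO-VPAC2 cells, 30 min at RT. cAMP measured by DiscoveRx kit against standards; EC50 derived for each aliquot.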

The next data set addresses T4, human VPAC1 (Homo sapiens, UniProt P32241).
T4 construct: expressed in transfected cells
T4 sequence (P32241 31-457): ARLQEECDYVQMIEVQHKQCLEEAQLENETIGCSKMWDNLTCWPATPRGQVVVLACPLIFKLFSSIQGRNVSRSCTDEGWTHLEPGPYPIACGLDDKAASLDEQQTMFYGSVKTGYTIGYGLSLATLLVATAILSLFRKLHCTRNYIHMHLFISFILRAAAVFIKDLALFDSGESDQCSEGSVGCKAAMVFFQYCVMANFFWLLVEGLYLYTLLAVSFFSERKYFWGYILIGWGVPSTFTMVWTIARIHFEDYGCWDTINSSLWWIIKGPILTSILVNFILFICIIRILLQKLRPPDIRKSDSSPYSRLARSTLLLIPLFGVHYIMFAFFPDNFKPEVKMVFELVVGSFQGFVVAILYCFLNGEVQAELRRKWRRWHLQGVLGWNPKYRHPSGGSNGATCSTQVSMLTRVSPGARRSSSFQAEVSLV
The experiment in a line: Filter binding assay, 125I-labeled VIP tracer, VPAC1 membranes. The conditions noted are these: read-out: Human VPAC1 Receptor Binding (IC50; nM).

Another data set deals with T5, rat VPAC2 receptor (Rattus norvegicus, UniProt P35000).
T5 construct: expressed in transfected cells; host or cells: CHO-PO (transient, Lipofectamine)
T5 sequence (P35000 23-437): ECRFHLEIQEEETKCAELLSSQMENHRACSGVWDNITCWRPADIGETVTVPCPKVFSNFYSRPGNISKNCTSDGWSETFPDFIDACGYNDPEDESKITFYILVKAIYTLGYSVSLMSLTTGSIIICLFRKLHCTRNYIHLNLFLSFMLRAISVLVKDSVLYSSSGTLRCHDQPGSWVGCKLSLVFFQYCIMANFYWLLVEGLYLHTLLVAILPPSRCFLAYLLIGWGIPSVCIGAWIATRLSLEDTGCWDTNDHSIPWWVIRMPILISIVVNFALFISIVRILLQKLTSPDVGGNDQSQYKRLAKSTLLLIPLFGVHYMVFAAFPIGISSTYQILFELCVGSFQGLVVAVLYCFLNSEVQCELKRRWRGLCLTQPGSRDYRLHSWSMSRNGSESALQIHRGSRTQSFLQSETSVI
The experiment in a line: DiscoveRx cAMP assay, in vitro potency at rat VPAC2 receptor. Type of data set: cell-based. To be noted: CHO-PO cells transiently transfected with rat VPAC2; cAMP generation; mean of two independent runs.

For data set [3], the target named is T1, human VPAC2. Put plainly: Alpha screen cAMP assay, in vitro potency at human VPAC2 receptor. Type of data set: cell-based. The conditions noted are these: cAMP generation; single result from two analyses in a single run, some values average of more than one experiment.
Procedure: Alpha screen: Cells are washed in the culture flask once with PBS. Then, the cells are rinsed with enzyme free dissociation buffer. The dissociated cells are removed. The cells are then spun down and washed in stimulation buffer. For each data point, 50,000 cells suspended in stimulation buffer are used. To this buffer, Alpha screen acceptor beads are added along with the stimuli. This mixture is incubated for 60 minutes. Lysis buffer and Alpha screen donor beads are added and are incubated for 60 to 120 minutes. The Alpha screen signal (indicative of intracellular cAMP levels) is read in a suitable instrument (e.g. AlphaQuest from Perkin-Elmer). Steps including Alpha screen donor and acceptor beads are performed in reduced light. The EC50 for cAMP generation is calculated from the raw signal or is based on absolute cAMP levels as determined by a standard curve performed on each plate.
Results for each agonist are, at minimum, from two analyses performed in a single run. For some agonists, the results are the mean of more than one run. The tested peptide concentrations are: 10000, 1000, 100, 10, 3, 1, 0.1, 0.01, 0.003, 0.001, 0.0001 and 0.00001 nM.

Here are results for two compounds from US20080194482A1, “Selective Apac2 Receptor Peptide Agonists” (priority 2005, published 2008).

Square brackets hold non-standard residues; d marks the D form. Peptide text beside a SMILES is read from it. * marks the point of attachment. Orn = NCCC[C@H](N)C(=O)O; Hexanoyl = CCCCCC(=O)*; Aib = CC(C)(N)C(=O)O

Take `CCCCCC(=O)N[C@@H](Cc1c[nH]cn1)C(=O)N[C@@H](CO)C(=O)N[C@@H](CC(=O)O)C(=O)N[C@@H](C)C(=O)N[C@H](C(=O)N[C@@H](Cc1ccccc1)C(=O)N[C@H](C(=O)N[C@@H](CC(=O)O)C(=O)N[C@@H](CC(N)=O)C(=O)N[C@@H](Cc1ccc(O)cc1)C(=O)N[C@H](C(=O)N[C@@H](CCCN)C(=O)N[C@@H](CC(C)C)C(=O)N[C@@H](CCCNC(=N)N)C(=O)NC(C)(C)C(=O)N[C@@H](CCC(N)=O)C(=O)N[C@H](C(=O)N[C@@H](C)C(=O)N[C@@H](C)C(=O)NC(C)(C)C(=O)N[C@@H](CCCCN)C(=O)N[C@@H](Cc1ccc(O)cc1)C(=O)N[C@@H](CC(C)C)C(=O)N[C@@H](CCC(N)=O)C(=O)N[C@@H](CS)C(=O)N[C@H](C(=O)N[C@@H](CCCN)C(=O)N[C@@H](CC(N)=O)C(=O)N[C@@H](CCCN)C(=O)NCC(=O)NCC(=O)N1CCC[C@H]1C(=O)N[C@@H](CO)C(=O)N[C@@H](CO)C(=O)NCC(=O)N[C@@H](C)C(=O)N1CCC[C@H]1C(=O)N1CCC[C@H]1C(=O)N1CCC[C@H]1C(=O)N[C@@H](CO)C(=O)O)[C@@H](C)CC)C(C)C)[C@@H](C)O)[C@@H](C)O)C(C)C` [Agonist P372] (Hexanoyl-HSDAVFTDNYT[Orn]LR[Aib]QVAA[Aib]KYLQCI[Orn]N[Orn]GGPSSGAPPPS-OH; C-terminus assumed): the half-maximal inhibitory concentration (IC50) at human VPAC2 [1] is 4.82 nM; on human PAC1 it was greater than 25000 nM; on human VPAC1, greater than 3000 nM. In addition, the values for the EC50 on rat VPAC1 receptor, at rat VPAC2 receptor and on human VPAC2 [3] were 1.67 nM, 0.18 nM and 0.65 nM, respectively. In data set [2], the “Rat Serum Stability (estimated purity in % after overnight incub.)” value is listed as 13.93%.
For the compound `CCCCCC(=O)N[C@@H](Cc1c[nH]cn1)C(=O)N[C@@H](CO)C(=O)N[C@@H](CC(=O)O)C(=O)N[C@@H](C)C(=O)N[C@H](C(=O)N[C@@H](Cc1ccccc1)C(=O)N[C@H](C(=O)N[C@@H](CC(=O)O)C(=O)N[C@@H](CCC(N)=O)C(=O)N[C@@H](Cc1ccc(O)cc1)C(=O)N[C@H](C(=O)N[C@@H](CCCN)C(=O)N[C@@H](CC(C)C)C(=O)N[C@@H](CCCNC(=N)N)C(=O)NC(C)(C)C(=O)N[C@@H](CCC(N)=O)C(=O)N[C@@H](CC(C)C)C(=O)N[C@@H](C)C(=O)N[C@@H](C)C(=O)NC(C)(C)C(=O)N[C@@H](CCCN)C(=O)N[C@@H](Cc1ccc(O)cc1)C(=O)N[C@@H](CC(C)C)C(=O)N[C@@H](CCC(N)=O)C(=O)N[C@@H](CO)C(=O)N[C@H](C(=O)N[C@@H](CCCN)C(=O)N[C@@H](CCCN)C(=O)NCC(=O)NCC(=O)N1CCC[C@H]1C(=O)N[C@@H](CO)C(=O)N[C@@H](CO)C(=O)NCC(=O)N[C@@H](C)C(=O)N1CCC[C@H]1C(=O)N1CCC[C@H]1C(=O)N1CCC[C@H]1C(=O)N[C@@H](CO)C(=O)O)[C@@H](C)CC)[C@@H](C)O)[C@@H](C)O)C(C)C` [Agonist P395] (Hexanoyl-HSDAVFTDQYT[Orn]LR[Aib]QLAA[Aib][Orn]YLQSI[Orn][Orn]GGPSSGAPPPS-OH; C-terminus assumed), the results for the IC50 on human VPAC2 [1] and on human PAC1 were 0.24 nM and greater than 25000 nM, respectively. Besides, the EC50 came to 0.35 nM at rat VPAC1 receptor, 0.03 nM at rat VPAC2 receptor and 0.15 nM on human VPAC2 [3].
